Consider two compounds from patent US10993895B2, “Composition obtainable by passing singlet oxygen through extra virgin olive oil” (priority 2017, dated 2021).

One data set concerns MRSA 10. Kind of data set: Infected incised wound of rats, MRSA 10. The format is in vivo, Rattus Norvegicus. The conditions noted are these: wound infected with MRSA 10; 6 rats. As for the experimental part: (§1) Effectivity Study on Infected Incised Wound of Rattus Norvegicus Experimental Research on Animal Testing
(§2) Method: Solution Preparation Protocol for Infected Incised Wound
(§3) Preparing the solution with these following steps:
(§4) 1. Bacteria from the infected patient clinical isolate is planted on the media by streaking at for quadrant
(§5) 2. The isolated bacteria in separated colonies are dissolved in the tube that contain pz liquid
(§6) 3. In order to analyze the cloudness level of the solution on the tube, nephelometer is used to figure the cloudness level to 0.50 McFarland.
(§7) 4. 0.5 McFarland is equal to 1.5×10^8 CFU bacteria.
(§8) Infected Incised Wound Preparation Protocol on Animals
(§9) 1. Preparation of animals:
(§10) 1. Inject the animals with anesthesia drug containing ketamine hydrochloride, 0.1-0.2 ml
(§11) 2. Place them back into the cage while waiting them to be fully unconscious as the effect of the drug.
(§12) 3. Shave the back hair of the animals with razor blade.
(§13) 4. Give antiseptics, i.e. povidone iodine and alcohol. Wait for three minutes.
(§14) 5. Make a 2-cm long incision on the animal's back. Should any bleeding occurred, wipe with cotton.
(§15) 6. Swipe the incised spot with the bacteria solution using a cotton bud.
(§16) 7. Cover the spot with gauze bandage and stick it with plaster.
8. […]
(§17) The tissue's processing is started after the fixation completed. […] Remove from the oven and leave it in room temperature, then the tissue is ready to dye. […]

The next data set concerns MRSA 6. Put plainly: Infected incised wound of rats, MRSA 6. It counts as in vivo, Rattus Norvegicus. The following applies: wound infected with MRSA 6; 6 rats. On the procedure: as §1, §2, §3, §4, §5, §6, §7, §8, §9, §10, §11, §12, §13, §14, §15, §16
8. […]
as §17

Data set [1] has as its system Incised Wound Rattus Norvegicus. Kind of data set: Acute toxicity study on incised wound healing in rats. It counts as in vivo. Also noted: Neo vascularization: key to the marks not given beside the values. On the procedure:
Research Protocol: Acute Toxicity Study on the Incised Wound healing Rattus Norvegicus In Vivo research on animals
as §9
1. Inject the animals with anesthesia drug containing ketamine hydrochloride, 0.1-0.2 ml as illustrated in 101 of FIG. 1.
2. Place them back into the cage while waiting them fully unconscious as the effect of the drug.
as §12
4. Give antiseptics, i.e. povidone iodine and alcohol. Wait for three minutes as illustrated in 102 of FIG. 1.
5. Make a 2-cm long incision on the animal's back as illustrated in 103 of FIG. 1. Should any bleeding occurred, wipe with cotton.
6. Apply cotton bud ton the incision spot.
7. Cover the spot with gauze bandage and stick it with plaster as illustrated in 104 of FIG. 1.
8. Place the animal back in to the cage.
2. Fixation Tissue Protocol
The skin organs from treatment and control group are taken after the incision, then put them to the bottles containing fixation solution, and give labels. The intensions of the fixation are:
3. Tissue Processing Protocol/Paraffin Block
The tissue's processing is started after the fixation completed. The steps of this process are dehydration, clearing, and impregnation/embedding. […] Afterward, do the clearing by place the tissue into xylol. Then, do the impregnation/embedding by using paraffin. The detail of this process is as follows: After the fixation is completed, the tissues are placed into the following solution, consecutively. 1. Alcohol 70%: - 2. Alcohol 80% 1 hour 3. Alcohol 95%: 2 hour 4. Alcohol 95%: 1 hour 5. Alcohol 100%: 1 hour 6. Alcohol 100%: 1 hour 7. Alcohol 100%: 1 hour 8. Xylol: 1 hour 9. Xylol: 1 hour 10. Xylol: 2 hour 11. Paraffin (56-58° C.): 2 hour 12. Paraffin (56-58° C.) 2 hour 13. Paraffin (56-58° C.) 2 hour
4. Tissue Slicing and Attaching Process on object glass Protocol.
5. Hematoxilin Eosin Dyeing Protocol
The steps of HE dyeing method are:
This research use 24 Rats divided into 4 groups of treatment; they are Vaseline, Sibro, Gentamicin and Test. Composition. Each group has 6 rats.
2. […] After then stopped the bleeding, applied Vaseline, Sibro, Gentamicin and Test Composition to each group. Application of Vaseline (201), Sibro (202), Gentamicin (203) and Test Composition (204) are illustrated in FIG. 2.
There are 4 parameters in observing incised wound microscopically, they are Epithelization, Fibroplasia, Neovascularization, and scar.

Where [2] appears, read: incised wound, microscopic (HE), after 7 days.

Turning to `C/C(=C\C(=O)OCCCCCCCCC(=O)O)C[C@@H]1OC[C@H](C[C@@H]2O[C@H]2[C@@H](C)[C@H](C)O)[C@@H](O)[C@H]1O` [mupirocine, Mupirocin], in the data set on MRSA 10, the “Dead Rats” value was found to be 0 and the Survival came out at 6. For the same compound, in the data set on MRSA 6, the “Dead Rats” value was determined as 0 and the Survival was 6.
For Gentamicin [Gentamisin], the “Wound condition on day −7 (macroscopic)” value in data set [1] (incised wound, macroscopic condition) is recorded as “Closing (with 1 granulation)”. In data set [1] (setting [2]), the Epitheliazation entry is reported as “+”, the Fibroplasia entry is listed as “+”, the Neo vascularization entry is recorded as “++” and the Scar entry was “+”. Besides, the “Dead Rats” value in data set [1] (substance applied on 2-cm incised wound, 6 rats per group, up to day 7) was determined as 0. For the same compound, the “Survival on day −7” value in data set [1] (substance applied on 2-cm incised wound, survivors/6 rats) was 6/6.
